Assays:
corn = assay: Test B pre-/postemergence herbicide test; type: in vivo, Zea mays; settings: for Corn plant response rating: postemergence
Procedure, shortened: (§1)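 Seeds were planted and treated preemergence with compounds formulated in a non-phytotoxic solvent mixture containing surfactant, while plants at the 1- to 4-leaf stage (2 to 18 cm) received postemergence sprays. Flooded paddy plants were grown to the 2-leaf stage. After 13 to 15 days in a greenhouse, injury was visually rated 0–100 against untreated controls.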

giant foxtail = assay: Test B pre-/postemergence herbicide test; type: in vivo, Setaria faberi; settings: for Foxtail, Giant plant response rating: postemergence
Procedure, shortened: as §1

ducksalad [1] = assay: Test B flooded paddy test; type: in vivo, Heteranthera limosa; settings: 1000 g ai/ha, scale 0 to 100 (0 no effect, 100 complete control)
Procedure, shortened: (§2)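 Visual ratings, 0 (no effect) to 100 (complete control), made versus controls after 13–15 d greenhouse. Paddy plants treated at 2-leaf stage; postemergence plants at 1- to 4-leaf stage, 2–18 cm tall.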

[2] = test system: smallflower umbrella sedge; assay: Test C flooded paddy test; type: in vivo, Cyperus difformis
morningglory = assay: Test B pre-/postemergence herbicide test; type: in vivo, Ipomoea coccinea; settings: for Morningglory plant response rating: postemergence
Procedure, shortened: (§3)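 Visual rating, 0 (no effect) to 100 (complete control), versus untreated controls after 13–15 d in greenhouse. Pre- and postemergence applications (postemergence plants 2–18 cm, 1–4 leaves); flooded paddy arm at 2-leaf stage. Compounds in non-phytotoxic solvent plus surfactant.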

lambsquarters = assay: Test B pre-/postemergence herbicide test; type: in vivo, Chenopodium album; settings: for Lambsquarters plant response rating: postemergence
Procedure, shortened: as §1

pigweed = assay: Test B pre-/postemergence herbicide test; type: in vivo, Amaranthus retroflexus; settings: for Pigweed plant response rating: postemergence
Procedure, shortened: as §1

ducksalad [3] = assay: Test C flooded paddy test; type: in vivo, Heteranthera limosa
rice [4] = assay: Test B pre-/postemergence herbicide test; type: in vivo, Oryza sativa; settings: 0 = no effect, 100 = complete control, preemergence
Procedure, shortened: as §1

wheat = assay: Test B postemergence herbicide test; type: in vivo, Triticum aestivum; parameters: key to Wheat plant response rating: 0 = no effect, 100 = complete control; settings: postemergence
Procedure, shortened: (§4)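 Treated at 2-leaf (paddy) or 1–4-leaf, 2–18 cm (postemergence); greenhouse 13–15 d; visual score vs control, 0 none to 100 complete control; dash = not tested.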

velvetleaf = assay: Test B pre-/postemergence herbicide test; type: in vivo, Abutilon theophrasti; settings: for Velvetleaf plant response rating: postemergence
Procedure, shortened: as §1

rice [5] = assay: Test C flooded paddy test; type: in vivo, Oryza sativa
Procedure, shortened: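 Postemergence sprays applied to plants 2 to 18 cm tall (1- to 4-leaf stage); paddy species grown to 2-leaf stage under flooding. After 12 to 14 days in greenhouse, visual rating versus untreated controls on 0–100 scale (0 no effect, 100 complete control).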

barnyardgrass [6] = assay: Test B pre-/postemergence herbicide test; type: in vivo, Echinochloa crus-galli; settings: for Barnyardgrass plant response rating: postemergence, scale 0 (no effect) to 100 (complete control)
Procedure, shortened: as §3

large crabgrass = assay: Test B pre-/postemergence herbicide test; type: in vivo, Digitaria sanguinalis; settings: for Crabgrass, Large plant response rating: postemergence
Procedure, shortened: as §1

Surinam grass = assay: Test B pre-/postemergence herbicide test; type: in vivo, Urochloa decumbens; settings: for Surinam Grass plant response rating: postemergence
Procedure, shortened: as §1

barnyardgrass [7] = assay: Test B flooded paddy test; type: in vivo, Echinochloa crus-galli; settings: 1000 g ai/ha, scale 0 to 100 (0 no effect, 100 complete control)
Procedure, shortened: as §2

[8] = test system: small flower umbrella sedge; assay: Test B flooded paddy test; type: in vivo, Cyperus difformis; settings: 1000 g ai/ha, scale 0 to 100 (0 no effect, 100 complete control)
Procedure, shortened: as §2

wild oat = assay: Test B postemergence herbicide test; type: in vivo, Avena fatua; settings: postemergence
Procedure, shortened: as §4

rice [9] = assay: Test B flooded paddy test; type: in vivo, Oryza sativa; settings: 1000 g ai/ha, scale 0 to 100 (0 no effect, 100 complete control)
Procedure, shortened: as §2

blackgrass = assay: Test B postemergence herbicide test; type: in vivo, Alopecurus myosuroides; settings: postemergence, visual rating, scale 0 (no effect) to 100 (complete control)
Procedure, shortened: as §2

cocklebur = assay: Test B pre-/postemergence herbicide test; type: in vivo, Xanthium strumarium; settings: for Cocklebur plant response rating: postemergence, scale 0 (no effect) to 100 (complete control)
Procedure, shortened: as §3

barnyardgrass [10] = assay: Test C flooded paddy test; type: in vivo, Echinochloa crus-galli
Procedure, shortened: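 After a postemergence application at 1 to 4 leaves (plants 2–18 cm high), or at 2 leaves for barnyardgrass in flooded paddy, plants stayed in the greenhouse for 12 to 14 days. Damage was then judged visually relative to control plants, with 100 indicating complete control.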

[11] = 125 g ai/ha, 0 = no effect, 100 = complete control, preemergence
[12] = 500 g ai/ha, visual rating, 0 = no effect, 100 = complete control, preemergence
[13] = 125 g ai/ha, visual rating, scale 0 (no effect) to 100 (complete control)
[14] = 500 g ai/ha, scale 0 to 100, 0 is no effect, 100 is complete control
[15] = 125 g ai/ha, scale 0 to 100 (0 no effect, 100 complete control)
[16] = 250 g ai/ha, scale of 0 to 100, 0 is no effect, 100 is complete control
[17] = 500 g ai/ha, visual rating after 12 to 14 days, scale 0 to 100 (0 no effect, 100 complete control)

CCNC(=O)c1ccc(OC)c(NC(=O)c2cc(C(C)(C)C)nn2CC)n1 [Compound 266] was tested, and the “Corn plant response rating (0 to 100 scale)” value (corn; [11]) was 0, the “Plant response rating, Corn” value (corn; [12]) was 90 and the “Corn plant response rating” value (corn; [13]) was 0. The “Corn plant response rating” value (corn; [14]) was 0, the “Foxtail, Giant plant response rating (0 to 100 scale)” value (giant foxtail; [11]) was 80 and the “Plant response rating, Foxtail, Giant” value (giant foxtail; [12]) was 100. The “Foxtail, Giant plant response rating” value (giant foxtail; [13]) was 0, the “Foxtail, Giant plant response rating” value (giant foxtail; [14]) was 20 and the “Ducksalad plant response rating” value (ducksalad [1]) was 90. The “Sedge, Umbrella plant response rating” value ([2]; 62 g ai/ha, scale 0 to 100) was 0, the “Sedge, Umbrella plant response rating” value [2, 15] was 20 and the “Sedge, Umbrella plant response rating” value [2, 16] was 55. The “Plant response rating, Sedge, Umbrella” value [2, 17] was 80, the “Morningglory plant response rating (0 to 100 scale)” value (morningglory; [11]) was 0 and the “Plant response rating, Morningglory” value (morningglory; [12]) was 10. For the same molecule, the “Morningglory plant response rating” value (morningglory; [13]) was 30, the “Morningglory plant response rating” value (morningglory; [14]) was 50 and the “Lambsquarters plant response rating (0 to 100 scale)” value (lambsquarters; [11]) was 100. The “Plant response rating, Lambsquarters” value (lambsquarters; [12]) was 100, the “Lambsquarters plant response rating” value (lambsquarters; [13]) was 60 and the “Lambsquarters plant response rating” value (lambsquarters; [14]) was 100. For the same molecule, the “Pigweed plant response rating (0 to 100 scale)” value (pigweed; [11]) was 100, the “Plant response rating, Pigweed” value (pigweed; [12]) was 100 and the “Pigweed plant response rating” value (pigweed; [13]) was 20. The “Pigweed plant response rating” value (pigweed; [14]) was 100, the “Ducksalad plant response rating” value (ducksalad [3]; 62 g ai/ha, scale 0 to 100) was 0 and the “Ducksalad plant response rating” value (ducksalad [3]; [15]) was 15. The “Ducksalad plant response rating” value (ducksalad [3]; [16]) was 75, the “Plant response rating, Ducksalad” value (ducksalad [3]; [17]) was 95 and the “Rice plant response rating (0 to 100 scale)” value (rice [4]; 125 g ai/ha) was 70. The “Plant response rating, Rice” value (rice [4]; 500 g ai/ha, visual rating) was 80, the “Wheat plant response rating” value (wheat; [13]) was 20 and the “Wheat plant response rating” value (wheat; [14]) was 30. For the same molecule, the “Velvetleaf plant response rating (0 to 100 scale)” value (velvetleaf; [11]) was 20, the “Plant response rating, Velvetleaf” value (velvetleaf; [12]) was 100 and the “Velvetleaf plant response rating” value (velvetleaf; [13]) was 0. For the same molecule, the “Velvetleaf plant response rating” value (velvetleaf; [14]) was 0, the “Rice plant response rating” value (rice [5]; 62 g ai/ha, scale 0 to 100) was 0 and the “Rice plant response rating” value (rice [5]; [15]) was 10. For the same molecule, the “Rice plant response rating” value (rice [5]; [16]) was 65, the “Plant response rating, Rice” value (rice [5]; [17]) was 80 and the “Barnyardgrass plant response rating (0 to 100 scale)” value (barnyardgrass [6]; [11]) was 60. For the same molecule, the “Plant response rating, Barnyardgrass” value (barnyardgrass [6]; [12]) was 80, the “Barnyardgrass plant response rating” value (barnyardgrass [6]; 125 g ai/ha, visual rating) was 0 and the “Barnyardgrass plant response rating” value (barnyardgrass [6]; 500 g ai/ha, visual rating) was 0. The “Crabgrass, Large plant response rating (0 to 100 scale)” value (large crabgrass; [11]) was 50, the “Plant response rating, Crabgrass, Large” value (large crabgrass; [12]) was 100 and the “Crabgrass, Large plant response rating” value (large crabgrass; [13]) was 0. For the same molecule, the “Crabgrass, Large plant response rating” value (large crabgrass; [14]) was 0, the “Surinam Grass plant response rating (0 to 100 scale)” value (Surinam grass; [11]) was 60 and the “Plant response rating, Surinam Grass” value (Surinam grass; [12]) was 90. The “Surinam Grass plant response rating” value (Surinam grass; [13]) was 10, the “Surinam Grass plant response rating” value (Surinam grass; [14]) was 20 and the “Barnyardgrass plant response rating” value (barnyardgrass [7]) was 80. The “Sedge, Umbrella plant response rating” value [8] was 80, the “Oat, Wild plant response rating” value (wild oat; [13]) was 10 and the “Oat, Wild plant response rating” value (wild oat; [14]) was 20. The “Rice plant response rating” value (rice [9]) was 80, the “Blackgrass plant response rating” value (blackgrass; 125 g ai/ha) was 20 and the “Blackgrass plant response rating” value (blackgrass; 500 g ai/ha) was 20. The “Cocklebur plant response rating (0 to 100 scale)” value (cocklebur; [11]) was 0, the “Plant response rating, Cocklebur” value (cocklebur; [12]) was 10 and the “Cocklebur plant response rating” value (cocklebur; 125 g ai/ha, visual rating) was 0. For the same molecule, the “Cocklebur plant response rating” value (cocklebur; 500 g ai/ha, visual rating) was 0, the “Barnyardgrass plant response rating” value (barnyardgrass [10]; 62 g ai/ha, scale 0 to 100 (0 no effect, 100 complete control)) was 0 and the “Barnyardgrass plant response rating” value (barnyardgrass [10]; [15]) was 25. For the same molecule, the “Barnyardgrass plant response rating” value (barnyardgrass [10]; [16]) was 50 and the “Plant response rating, Barnyardgrass” value (barnyardgrass [10]; [17]) was 70.

Source: patent US20060069132A1, “Azolecarboxamide herbicides” (priority 2004, published 2006)
